# According to patent US20230365627A1, “MACROCYCLIC PEPTIDE BORONATE IMMUNOMODULATORS” (Bristol-Myers Squibb Company, priority 2020, published 2023):
# pIC50: −log10 of the molar value. *1 amine or outer side, *2 acyl side, *3 side chain or, on linkers, in order; H or OH if unused. Where a SMILES comes first, the peptide text is derived from it. Bridges are numbered along the chain shown (N, C = ends). [ ]: non-standard residue; d: D form. X12 = O=C([C@H](CN1Cc2ccccc2B2O[C@@H]([C@H](O)[C@@H](C(O)CO)O2)[C@H](O)C1)N[*:1])[*:2]; X13 = O=C([C@H](CCNC[C@@H](O)[C@@H](O)[C@H](O)[C@H](O)C(O)CO)N[*:1])[*:2]; Trp(1-CH2CO) = O=C([C@H](Cc1cn(CC(=O)[*:3])c2ccccc12)N[*:1])[*:2]; X28 = O=C([C@H](CNCc1cc(F)c(F)cc1B(O)O[*:3])N[*:1])[*:2]; Trp(1-CH2COOH) = N[C@@H](Cc1cn(CC(=O)O)c2ccccc12)C(=O)O; X30 = O=C([C@H](CNCc1ccc(B(O)O)cc1C(F)(F)F)N[*:1])[*:2]; X8 = O=C([C@H](CNCc1ccc(B(O)O[*:3])cc1Cl)N[*:1])[*:2]; X1 = Cc1cc(CNC[C@H](N[*:1])C(=O)[*:2])cc(C)c1B(O)O; X11 = COc1ccc(CNCC[C@H](N[*:1])C(=O)[*:2])cc1B(O)O; X10 = COc1ccc(CNC[C@H](N[*:1])C(=O)[*:2])cc1B(O)O; X9 = O=C([C@H](CCNCc1ccc(B(O)O)cc1Cl)N[*:1])[*:2]; Hyp = O=C(O)[C@@H]1C[C@@H](O)CN1; NMeNle = CCCC[C@H](NC)C(=O)O; NMeA = CN[C@@H](C)C(=O)O; Dab = NCC[C@H](N)C(=O)O
# Target: PD-1/PD-L1 (Homo sapiens (Human), UniProt Q9NZQ7)
# Assay: PD-1/PD-L1 Homogenous Time-Resolved Fluorescence (HTRF) binding assay
# Conditions: not given
# Description: Methods for Testing the Ability of Macrocyclic Peptides to Compete for the Binding of PD-1 to PD-L1 Using Homogenous Time-Resolved Fluorescence (HTRF) Binding Assays
# The ability of the compounds of formula (I) to bind to PD-L1 was investigated using a PD-1/PD-L1 Homogenous Time-Resolved Fluorescence (HTRF) binding assay.
# Homogenous Time-Resolved Fluorescence (HTRF) Binding Assay
# The interaction of PD-1 and PD-L1 can be assessed using soluble, purified preparations of the extracellular domains of the two proteins. The PD-1 and PD-L1 protein extracellular domains were expressed as fusion proteins with detection tags, for PD-1, the tag was the Fc portion of Immunoglobulin (PD-1-Ig) and for PD-L1 it was the 6 histidine motif (PD-L1-His). All binding studies were performed in an HTRF assay buffer consisting of dPBS supplemented with 0.1% […] bovine serum albumin and 0.05% (v/v) Tween-20. For the h/PD-L1-His binding assay, inhibitors were pre-incubated with PD-L1-His (10 nM final) for 15 m in 4 μl of assay buffer, followed by addition of PD-1-Ig (20 nM final) in 1 μl of assay buffer and further incubation for 15 m. HTRF detection was achieved using europium cryptate-labeled anti-Ig (1 nM final) and allophycocyanin (APC) labeled anti-His (20 nM final). Antibodies were diluted in HTRF detection buffer and 5 μl was dispensed on top of the binding reaction. The reaction mixture was allowed to equilibrate for 30 minutes and the resulting signal (665 nm/620 nm ratio) was obtained using an EnVision fluorometer. Additional binding assays were established between the human proteins PD-1-Ig/PD-L2-His (20 & 5 nM, respectively) and CD80-His/PD-L1-Ig (100 & 10 nM, respectively).
# Recombinant Proteins: Human PD-1 (25-167) with a C-terminal human Fc domain of immunoglobulin G (Ig) epitope tag [hPD-1 (25-167)-3S-IG] and human PD-L1 (18-239) with a C-terminal His epitope tag [hPD-L1(18-239)-TVMV-His] were expressed in HEK293T cells and purified sequentially by ProteinA affinity chromatography and size exclusion chromatography. Human PD-L2-His and CD80-His was obtained through commercial sources.
# Table 1 lists the IC50 values for representative examples of this disclosure measured in the PD-1/PD-L1 Homogenous Time-Resolved Fluorescence (HTRF) binding assay.
# Chain of PD-1/PD-L1 (Q9NZQ7 18-239): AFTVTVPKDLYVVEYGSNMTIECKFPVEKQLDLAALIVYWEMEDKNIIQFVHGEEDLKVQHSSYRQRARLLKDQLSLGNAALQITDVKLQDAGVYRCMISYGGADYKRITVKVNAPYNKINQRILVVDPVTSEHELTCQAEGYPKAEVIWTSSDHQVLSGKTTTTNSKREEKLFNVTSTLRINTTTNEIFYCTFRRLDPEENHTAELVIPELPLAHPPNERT
row,Compound,pIC50
1,CCCC[C@H]1C(=O)N(C)[C@@H](CCCC)C(=O)N[C@@H](CC(C)C)C(=O)N[C@H](C(=O)NCC(N)=O)CSCC(=O)N[C@@H](Cc2ccc(O)cc2)C(=O)N(C)[C@@H](C)C(=O)N[C@@H](CC(N)=O)C(=O)N2CCC[C@H]2C(=O)N[C@@H](CN2Cc3ccccc3B3O[C@@H]([C@H](O)[C@@H](C(O)CO)O3)[C@H](O)C2)C(=O)N[C@@H](CC(C)C)C(=O)N2C[C@H](O)C[C@H]2C(=O)N[C@@H](Cc2c[nH]c3ccccc23)C(=O)N[C@@H](CCNC[C@@H](O)[C@@H](O)[C@H](O)[C@H](O)C(O)CO)C(=O)N[C@@H](Cc2cn(CC(=O)O)c3ccccc23)C(=O)N1C (stereo partly drawn) [Example 1038] ({CH2CO}-Y[NMeA]NP[X12]L[Hyp]W[X13][Trp(1-CH2COOH)][NMeNle][NMeNle]LCG-NH2; thioether N-14),8.17

# Same assay, conditions: PD-L1-His 10 nM, PD-1-Ig 20 nM; read-out: HTRF IC50
row,Compound,pIC50
1,CCCC[C@H]1C(=O)N(C)[C@@H](CCCC)C(=O)N[C@@H](CC(C)C)C(=O)N[C@H](C(=O)NCC(N)=O)CSCC(=O)N[C@@H](Cc2ccc(O)cc2)C(=O)N(C)[C@@H](C)C(=O)N[C@@H](CC(N)=O)C(=O)N2CCC[C@H]2C(=O)N[C@@H](CNCc2ccc(OC)c(B(O)O)c2)C(=O)N[C@@H](CC(C)C)C(=O)N2C[C@H](O)C[C@H]2C(=O)N[C@@H](Cc2c[nH]c3ccccc23)C(=O)N[C@@H](CCN)C(=O)N[C@@H](Cc2cn(CC(=O)O)c3ccccc23)C(=O)N1C [Example 1023] ({CH2CO}-Y[NMeA]NP[X10]L[Hyp]W[Dab][Trp(1-CH2COOH)][NMeNle][NMeNle]LCG-NH2; thioether N-14),8.01
2,CCCC[C@H]1C(=O)N(C)[C@@H](CCCC)C(=O)N[C@@H](CC(C)C)C(=O)N[C@H](C(=O)NCC(N)=O)CSCC(=O)N[C@@H](Cc2ccc(O)cc2)C(=O)N(C)[C@@H](C)C(=O)N[C@@H](CC(N)=O)C(=O)N2CCC[C@H]2C(=O)N[C@H]2CNCc3cc(F)c(F)cc3B(O)OC(=O)Cn3cc(c4ccccc43)C[C@H](NC(=O)[C@H](CCN)NC(=O)[C@H](Cc3c[nH]c4ccccc34)NC(=O)[C@@H]3C[C@@H](O)CN3C(=O)[C@H](CC(C)C)NC2=O)C(=O)N1C [Example 1024] ({CH2CO}-Y[NMeA]NP[X28]L[Hyp]W[Dab][Trp(1-CH2CO)][NMeNle][NMeNle]LCG-NH2; ester 5-10; thioether N-14),8.03
3,CCCC[C@H]1C(=O)N(C)[C@@H](CCCC)C(=O)N[C@@H](CC(C)C)C(=O)N[C@H](C(=O)NCC(N)=O)CSCC(=O)N[C@@H](Cc2ccc(O)cc2)C(=O)N(C)[C@@H](C)C(=O)N[C@@H](CC(N)=O)C(=O)N2CCC[C@H]2C(=O)N[C@@H](CNCc2ccc(B(O)O)cc2C(F)(F)F)C(=O)N[C@@H](CC(C)C)C(=O)N2C[C@H](O)C[C@H]2C(=O)N[C@@H](Cc2c[nH]c3ccccc23)C(=O)N[C@@H](CCN)C(=O)N[C@@H](Cc2cn(CC(=O)O)c3ccccc23)C(=O)N1C [Example 1025] ({CH2CO}-Y[NMeA]NP[X30]L[Hyp]W[Dab][Trp(1-CH2COOH)][NMeNle][NMeNle]LCG-NH2; thioether N-14),7.85
4,CCCC[C@H]1C(=O)N(C)[C@@H](CCCC)C(=O)N[C@@H](CC(C)C)C(=O)N[C@H](C(=O)NCC(N)=O)CSCC(=O)N[C@H]2Cc3ccc(cc3)OB(O)c3ccc(cc3F)CNCC[C@@H]3NC(=O)[C@H](Cc4c[nH]c5ccccc45)NC(=O)[C@@H]4C[C@@H](O)CN4C(=O)[C@H](CC(C)C)NC(=O)[C@H](CNCc4ccc(c(F)c4)B(O)OC(=O)Cn4cc(c5ccccc54)C[C@H](NC3=O)C(=O)N1C)NC(=O)[C@@H]1CCCN1C(=O)[C@H](CC(N)=O)NC(=O)[C@H](C)N(C)C2=O [Example 1026],8.40
5,CCCC[C@H]1C(=O)N(C)[C@@H](CCCC)C(=O)N[C@@H](CC(C)C)C(=O)N[C@H](C(=O)NCC(N)=O)CSCC(=O)N[C@@H](Cc2ccc(O)cc2)C(=O)N(C)[C@@H](C)C(=O)N[C@@H](CC(N)=O)C(=O)N2CCC[C@H]2C(=O)N[C@@H](CNCc2cc(C)c(B(O)O)c(C)c2)C(=O)N[C@@H](CC(C)C)C(=O)N2C[C@H](O)C[C@H]2C(=O)N[C@@H](Cc2c[nH]c3ccccc23)C(=O)N[C@@H](CCN)C(=O)N[C@@H](Cc2cn(CC(=O)O)c3ccccc23)C(=O)N1C [Example 1027] ({CH2CO}-Y[NMeA]NP[X1]L[Hyp]W[Dab][Trp(1-CH2COOH)][NMeNle][NMeNle]LCG-NH2; thioether N-14),8.42
6,CCCC[C@H]1C(=O)N(C)[C@@H](CCCC)C(=O)N[C@@H](CC(C)C)C(=O)N[C@H](C(=O)NCC(N)=O)CSCC(=O)N[C@H]2Cc3ccc(cc3)OB(O)c3ccc(c(F)c3)CNCC[C@@H]3NC(=O)[C@H](Cc4c[nH]c5ccccc45)NC(=O)[C@@H]4C[C@@H](O)CN4C(=O)[C@H](CC(C)C)NC(=O)[C@H](CNCc4ccc(cc4F)B(O)OC(=O)Cn4cc(c5ccccc54)C[C@H](NC3=O)C(=O)N1C)NC(=O)[C@@H]1CCCN1C(=O)[C@H](CC(N)=O)NC(=O)[C@H](C)N(C)C2=O [Example 1028],8.34
7,CCCC[C@H]1C(=O)N(C)[C@@H](CCCC)C(=O)N[C@@H](CC(C)C)C(=O)N[C@H](C(=O)NCC(N)=O)CSCC(=O)N[C@H]2Cc3ccc(cc3)OB(O)c3ccc(c(C(F)(F)F)c3)CNCC[C@@H]3NC(=O)[C@H](Cc4c[nH]c5ccccc45)NC(=O)[C@@H]4C[C@@H](O)CN4C(=O)[C@H](CC(C)C)NC(=O)[C@H](CNCc4ccc(cc4C(F)(F)F)B(O)OC(=O)Cn4cc(c5ccccc54)C[C@H](NC3=O)C(=O)N1C)NC(=O)[C@@H]1CCCN1C(=O)[C@H](CC(N)=O)NC(=O)[C@H](C)N(C)C2=O [Example 1030],7.96
8,CCCC[C@H]1C(=O)N(C)[C@@H](CCCC)C(=O)N[C@@H](CC(C)C)C(=O)N[C@H](C(=O)NCC(N)=O)CSCC(=O)N[C@H]2Cc3ccc(cc3)OB(O)c3cc(F)c(F)cc3CNCC[C@@H]3NC(=O)[C@H](Cc4c[nH]c5ccccc45)NC(=O)[C@@H]4C[C@@H](O)CN4C(=O)[C@H](CC(C)C)NC(=O)[C@H](CNCc4cc(F)c(F)cc4B(O)OC(=O)Cn4cc(c5ccccc54)C[C@H](NC3=O)C(=O)N1C)NC(=O)[C@@H]1CCCN1C(=O)[C@H](CC(N)=O)NC(=O)[C@H](C)N(C)C2=O [Example 1031],8.00
9,CCCC[C@H]1C(=O)N(C)[C@@H](CCCC)C(=O)N[C@@H](CC(C)C)C(=O)N[C@H](C(=O)NCC(N)=O)CSCC(=O)N[C@@H](Cc2ccc(O)cc2)C(=O)N(C)[C@@H](C)C(=O)N[C@@H](CC(N)=O)C(=O)N2CCC[C@H]2C(=O)N[C@@H](CNCc2ccc(OC)c(B(O)O)c2)C(=O)N[C@@H](CC(C)C)C(=O)N2C[C@H](O)C[C@H]2C(=O)N[C@@H](Cc2c[nH]c3ccccc23)C(=O)N[C@@H](CCNCc2ccc(OC)c(B(O)O)c2)C(=O)N[C@@H](Cc2cn(CC(=O)O)c3ccccc23)C(=O)N1C [Example 1032] ({CH2CO}-Y[NMeA]NP[X10]L[Hyp]W[X11][Trp(1-CH2COOH)][NMeNle][NMeNle]LCG-NH2; thioether N-14),8.23
10,CCCC[C@H]1C(=O)N(C)[C@@H](CCCC)C(=O)N[C@@H](CC(C)C)C(=O)N[C@H](C(=O)NCC(N)=O)CSCC(=O)N[C@@H](Cc2ccc(O)cc2)C(=O)N(C)[C@@H](C)C(=O)N[C@@H](CC(N)=O)C(=O)N2CCC[C@H]2C(=O)N[C@H]2CNCc3ccc(cc3Cl)B(O)OC(=O)Cn3cc(c4ccccc43)C[C@H](NC(=O)[C@H](CCNCc3ccc(B(O)O)cc3Cl)NC(=O)[C@H](Cc3c[nH]c4ccccc34)NC(=O)[C@@H]3C[C@@H](O)CN3C(=O)[C@H](CC(C)C)NC2=O)C(=O)N1C [Example 1033] ({CH2CO}-Y[NMeA]NP[X8]L[Hyp]W[X9][Trp(1-CH2CO)][NMeNle][NMeNle]LCG-NH2; ester 5-10; thioether N-14),8.05
11,CCCC[C@H]1C(=O)N(C)[C@@H](CCCC)C(=O)N[C@@H](CC(C)C)C(=O)N[C@H](C(=O)NCC(N)=O)CSCC(=O)N[C@H]2Cc3ccc(cc3)OB(O)c3ccc(nc3)CNCC[C@@H]3NC(=O)[C@H](Cc4c[nH]c5ccccc45)NC(=O)[C@@H]4C[C@@H](O)CN4C(=O)[C@H](CC(C)C)NC(=O)[C@H](CNCc4ccc(cn4)B(O)OC(=O)Cn4cc(c5ccccc54)C[C@H](NC3=O)C(=O)N1C)NC(=O)[C@@H]1CCCN1C(=O)[C@H](CC(N)=O)NC(=O)[C@H](C)N(C)C2=O [Example 1034],7.96
